Where “and” joins values, the source holds several entries; their conditions need not be identical. Identical values can stand only once. Inconclusive results and toxic doses are left out.
Tested on: CD2F1 mice, L1210 leukemia ip, survival T/C
Test: NCI In Vivo Anticancer Drug Screen. Data for tumor model L1210 Leukemia (intraperitoneal) in CD2F1 (CDF1) mice
Details: higher = longer survival
How it was run: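 In this screen, transplantable tumors were grown in mice given either the compound or its vehicle. Results were expressed as the treated measurement relative to the control measurement.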

[1] = endpoint: mean survival time, dose: 100.0 mg/kg/injection, schedule: Q04DX003 (ip), vehicle: saline with Tween-80
[2] = endpoint: mean survival time, dose: 200.0 mg/kg/injection, schedule: Q04DX003 (ip), vehicle: saline with Tween-80
[3] = endpoint: mean survival time, dose: 100.0 mg/kg/injection, schedule: Q01DX009 (ip), vehicle: saline
[4] = endpoint: mean survival time, dose: 200.0 mg/kg/injection, schedule: Q01DX009 (ip), vehicle: saline
[5] = endpoint: mean survival time, dose: 400.0 mg/kg/injection, schedule: Q01DX009 (ip), vehicle: saline
[6] = endpoint: mean survival time, dose: 100.0 mg/kg/injection, schedule: Q01DX001 (ip), vehicle: other
[7] = endpoint: mean survival time, dose: 200.0 mg/kg/injection, schedule: Q01DX001 (ip), vehicle: other
[8] = endpoint: mean survival time, dose: 25.0 mg/kg/injection, schedule: Q01DX009 (ip), vehicle: saline with Tween-80
[9] = endpoint: mean survival time, dose: 50.0 mg/kg/injection, schedule: Q01DX009 (ip), vehicle: saline with Tween-80
[10] = endpoint: mean survival time, dose: 100.0 mg/kg/injection, schedule: Q01DX009 (ip), vehicle: saline with Tween-80
[11] = endpoint: mean survival time, dose: 200.0 mg/kg/injection, schedule: Q01DX009 (ip), vehicle: saline with Tween-80
[12] = endpoint: mean survival time, dose: 400.0 mg/kg/injection, schedule: Q01DX009 (ip), vehicle: saline with Tween-80

With `N#[N+]c1cnc([O-])[nH]c1=O` the T/C (endpoint: mean survival time, dose: 0.5 mg/kg/injection, schedule: Q07DX Z (ip), vehicle: saline) was 106 % of control, the T/C (endpoint: mean survival time, dose: 1.0 mg/kg/injection, schedule: Q07DX Z (ip), vehicle: saline) was 112 % of control and the T/C (endpoint: mean survival time, dose: 2.0 mg/kg/injection, schedule: Q03DX Z (ip), vehicle: saline) was 112 % of control. The T/C (endpoint: mean survival time, dose: 2.0 mg/kg/injection, schedule: Q07DX Z (ip), vehicle: saline) was 118 % of control, the T/C (endpoint: mean survival time, dose: 4.0 mg/kg/injection, schedule: Q07DX Z (ip), vehicle: saline) was 116 % of control and the T/C (endpoint: mean survival time, dose: 8.0 mg/kg/injection, schedule: Q01DX001 (ip), vehicle: saline) was 112 % of control. For the same molecule, the T/C (endpoint: mean survival time, dose: 16.0 mg/kg/injection, schedule: Q01DX001 (ip), vehicle: saline) was 112 % of control and the T/C (endpoint: mean survival time, dose: 32.0 mg/kg/injection, schedule: Q01DX001 (ip), vehicle: saline) was 115 % of control and 117 % of control.
With `O=C(OCCNc1ccc([N+](=O)[O-])cc1[N+](=O)[O-])c1ccccc1` the T/C (endpoint: mean survival time, dose: 100.0 mg/kg/injection, schedule: Q04DX002 (ip), vehicle: other) was 101 % of control, the T/C (endpoint: mean survival time, dose: 200.0 mg/kg/injection, schedule: Q04DX002 (ip), vehicle: other) was 108 % of control and the T/C (endpoint: mean survival time, dose: 400.0 mg/kg/injection, schedule: Q04DX002 (ip), vehicle: other) was 96 % of control.
`COc1ccc(N=C(C)C2C(=O)c3ccccc3C2=O)cc1` was tested, and the T/C (endpoint: median survival time, dose: 50.0 mg/kg/injection, schedule: Q01DX005 (ip), vehicle: DMSO) was 101 % of control, the T/C (endpoint: median survival time, dose: 100.0 mg/kg/injection, schedule: Q01DX005 (ip), vehicle: DMSO) was 101 % of control and the T/C (endpoint: median survival time, dose: 200.0 mg/kg/injection, schedule: Q01DX005 (ip), vehicle: DMSO) was 103 % of control. The T/C (endpoint: median survival time, dose: 400.0 mg/kg/injection, schedule: Q01DX005 (ip), vehicle: DMSO) was 103 % of control and the T/C (endpoint: median survival time, dose: 800.0 mg/kg/injection, schedule: Q01DX005 (ip), vehicle: DMSO) was 101 % of control.
For `CN(C)S(=O)(=O)Oc1cccc(N)c1`, the T/C [1] was 92 % of control and the T/C [2] was 87 % of control.
For `COc1cc(C2=NCCc3cc4c(cc32)OCO4)cc(OC)c1OC`, the T/C (endpoint: median survival time, dose: 6.25 mg/kg/injection, schedule: Q01DX009 (ip), vehicle: saline + alcohol) was 106 % of control, the T/C (endpoint: median survival time, dose: 12.5 mg/kg/injection, schedule: Q01DX009 (ip), vehicle: saline + alcohol) was 105 % of control and the T/C (endpoint: median survival time, dose: 12.5 mg/kg/injection, schedule: Q01DX009 (ip), vehicle: saline) was 97 % of control and 102 % of control. The T/C (endpoint: median survival time, dose: 25.0 mg/kg/injection, schedule: Q01DX009 (ip), vehicle: saline + alcohol) was 107 % of control, the T/C (endpoint: median survival time, dose: 25.0 mg/kg/injection, schedule: Q01DX009 (ip), vehicle: saline) was 93 % of control and 104 % of control and the T/C (endpoint: median survival time, dose: 50.0 mg/kg/injection, schedule: Q01DX009 (ip), vehicle: saline + alcohol) was 106 % of control. The T/C (endpoint: median survival time, dose: 50.0 mg/kg/injection, schedule: Q01DX009 (ip), vehicle: saline) was 105 % of control, the T/C (endpoint: median survival time, dose: 100.0 mg/kg/injection, schedule: Q01DX009 (ip), vehicle: saline + alcohol) was 109 % of control and the T/C (endpoint: median survival time, dose: 100.0 mg/kg/injection, schedule: Q01DX009 (ip), vehicle: saline) was 105 % of control.
For `OC1C(O)C(O)C(O)C(O)C1O` (stereo not given), the T/C [3] was 104 % of control, the T/C [4] was 94 % of control and the T/C [5] was 94 % of control.
In the case of `O=NNc1cccc(NN=O)n1`, the T/C (endpoint: median survival time, dose: 6.25 mg/kg/injection, schedule: Q01DX005 (ip), vehicle: saline) is reported as 115 % of control and 108 % of control, the T/C (endpoint: median survival time, dose: 12.5 mg/kg/injection, schedule: Q01DX005 (ip), vehicle: saline) is reported as 121 % of control and the T/C (endpoint: median survival time, dose: 29.0 mg/kg/injection, schedule: Q01DX005 (ip), vehicle: saline) is reported as 153 % of control. For the same molecule, the T/C (endpoint: median survival time, dose: 44.0 mg/kg/injection, schedule: Q01DX005 (ip), vehicle: saline) was 166 % of control and the T/C (endpoint: median survival time, dose: 100.0 mg/kg/injection, schedule: Q01DX005 (ip), vehicle: saline) was 122 % of control and 91 % of control and 98 % of control.
In the case of `c1ccc(C(=NN=C(c2ccccc2)c2ccccc2)c2ccccc2)cc1`, the T/C [1] is reported as 97 % of control, the T/C [2] is reported as 97 % of control and the T/C (endpoint: mean survival time, dose: 400.0 mg/kg/injection, schedule: Q04DX003 (ip), vehicle: saline with Tween-80) is reported as 95 % of control. The T/C (endpoint: mean survival time, dose: 800.0 mg/kg/injection, schedule: Q04DX003 (ip), vehicle: saline with Tween-80) was 92 % of control.
In the case of `O`, the T/C (endpoint: mean survival time, dose: 75.0 mg/kg/injection, schedule: Q01DX001 (ip), vehicle: saline) is reported as 96 % of control, the T/C [3] is reported as 88 % of control and the T/C [4] is reported as 100 % of control. For the same molecule, the T/C [5] was 96 % of control.
For `C[n+]1c(/C=C\C=C\N2CCCCC2)sc2ccccc21`, the T/C (endpoint: mean survival time, dose: 0.06 mg/kg/injection, schedule: Q01DX009 (ip), vehicle: Klucel (hydroxypropylcellulose) (HPC)) was 104 % of control, the T/C (endpoint: mean survival time, dose: 0.12 mg/kg/injection, schedule: Q01DX009 (ip), vehicle: Klucel (hydroxypropylcellulose) (HPC)) was 104 % of control and the T/C (endpoint: mean survival time, dose: 0.25 mg/kg/injection, schedule: Q01DX009 (ip), vehicle: Klucel (hydroxypropylcellulose) (HPC)) was 107 % of control. The T/C (endpoint: mean survival time, dose: 0.31 mg/kg/injection, schedule: Q01DX009 (ip), vehicle: Klucel (hydroxypropylcellulose) (HPC)) was 113 % of control, the T/C (endpoint: mean survival time, dose: 0.5 mg/kg/injection, schedule: Q01DX009 (ip), vehicle: Klucel (hydroxypropylcellulose) (HPC)) was 111 % of control and the T/C (endpoint: mean survival time, dose: 0.63 mg/kg/injection, schedule: Q01DX009 (ip), vehicle: Klucel (hydroxypropylcellulose) (HPC)) was 97 % of control. For the same molecule, the T/C (endpoint: mean survival time, dose: 1.0 mg/kg/injection, schedule: Q01DX009 (ip), vehicle: Klucel (hydroxypropylcellulose) (HPC)) was 107 % of control, the T/C (endpoint: mean survival time, dose: 1.25 mg/kg/injection, schedule: Q01DX009 (ip), vehicle: Klucel (hydroxypropylcellulose) (HPC)) was 100 % of control and the T/C (endpoint: mean survival time, dose: 2.0 mg/kg/injection, schedule: Q01DX009 (ip), vehicle: Klucel (hydroxypropylcellulose) (HPC)) was 118 % of control. The T/C (endpoint: mean survival time, dose: 62.0 micrograms/kg/injection, schedule: Q01DX009 (ip), vehicle: Klucel (hydroxypropylcellulose) (HPC)) was 104 % of control, the T/C (endpoint: mean survival time, dose: 125.0 micrograms/kg/injection, schedule: Q01DX009 (ip), vehicle: Klucel (hydroxypropylcellulose) (HPC)) was 102 % of control and the T/C (endpoint: mean survival time, dose: 250.0 micrograms/kg/injection, schedule: Q01DX009 (ip), vehicle: Klucel (hydroxypropylcellulose) (HPC)) was 101 % of control. The T/C (endpoint: mean survival time, dose: 500.0 micrograms/kg/injection, schedule: Q01DX009 (ip), vehicle: Klucel (hydroxypropylcellulose) (HPC)) was 101 % of control, the T/C (endpoint: mean survival time, dose: 1000.0 micrograms/kg/injection, schedule: Q01DX009 (ip), vehicle: Klucel (hydroxypropylcellulose) (HPC)) was 113 % of control and the T/C (endpoint: mean survival time, dose: 2000.0 micrograms/kg/injection, schedule: Q01DX009 (ip), vehicle: Klucel (hydroxypropylcellulose) (HPC)) was 108 % of control.
In the case of `O=C(O)Cc1ccc(Cl)cc1[N+](=O)[O-]`, the T/C [6] is reported as 113 % of control, the T/C [7] is reported as 107 % of control and the T/C (endpoint: mean survival time, dose: 400.0 mg/kg/injection, schedule: Q01DX001 (ip), vehicle: other) is reported as 98 % of control.
With `CCOC(=O)N1CCc2nc3ccccc3cc21` the T/C (endpoint: mean survival time, dose: 50.0 mg/kg/injection, schedule: Q01DX001 (ip), vehicle: other) was 106 % of control, the T/C [6] was 109 % of control and the T/C [7] was 97 % of control.
For `O=[N+]([O-])c1ccc(S(=O)(=O)C/C=C/CCl)c([N+](=O)[O-])c1`, the T/C [8] was 102 % of control, the T/C [9] was 95 % of control and the T/C (endpoint: mean survival time, dose: 100.0 mg/kg/injection, schedule: Q01DX001 (ip), vehicle: saline with Tween-80) was 94 % of control.
`CCOC(=O)C(OC(=O)CC)c1ccccc1` (stereo not given) was tested, and the T/C [10] was 96 % of control, the T/C [11] was 100 % of control and the T/C [12] was 102 % of control.
`Clc1ccc(CN2COc3c(ccc4cccnc34)C2)cc1Cl` was tested, and the T/C (endpoint: mean survival time, dose: 12.5 mg/kg/injection, schedule: Q01DX009 (ip), vehicle: saline with Tween-80) was 95 % of control and 97 % of control, the T/C [8] was 92 % of control and 105 % of control and the T/C [9] was 94 % of control and 105 % of control. For the same molecule, the T/C [10] was 103 % of control and 110 % of control, the T/C [11] was 95 % of control and the T/C [12] was 94 % of control.
In the case of `CN(C)C1c2cc(Br)ccc2-c2ccc(Br)cc21`, the T/C (endpoint: mean survival time, dose: 50.0 mg/kg/injection, schedule: Q01DX001 (ip), vehicle: carboxymethylcellulose (CMC)) is reported as 101 % of control, the T/C (endpoint: mean survival time, dose: 100.0 mg/kg/injection, schedule: Q01DX001 (ip), vehicle: carboxymethylcellulose (CMC)) is reported as 101 % of control and the T/C (endpoint: mean survival time, dose: 200.0 mg/kg/injection, schedule: Q01DX001 (ip), vehicle: carboxymethylcellulose (CMC)) is reported as 104 % of control. For the same molecule, the T/C (endpoint: mean survival time, dose: 400.0 mg/kg/injection, schedule: Q01DX001 (ip), vehicle: carboxymethylcellulose (CMC)) was 104 % of control.

Source: PubChem BioAssay AID256 (DTP/NCI, 2004)
